{
  "source": "patent US8513289B2",
  "about": "“P38 kinase inhibiting agents” (Merck Sharp & Dohme Corp., priority 2009, dated 2013)",
  "key": {"[1]": {"target": "T1, p38-α (Homo sapiens, UniProt Q16539)", "T1 construct": "purchased Millipore", "T1 sequence (Q16539 whole entry)": "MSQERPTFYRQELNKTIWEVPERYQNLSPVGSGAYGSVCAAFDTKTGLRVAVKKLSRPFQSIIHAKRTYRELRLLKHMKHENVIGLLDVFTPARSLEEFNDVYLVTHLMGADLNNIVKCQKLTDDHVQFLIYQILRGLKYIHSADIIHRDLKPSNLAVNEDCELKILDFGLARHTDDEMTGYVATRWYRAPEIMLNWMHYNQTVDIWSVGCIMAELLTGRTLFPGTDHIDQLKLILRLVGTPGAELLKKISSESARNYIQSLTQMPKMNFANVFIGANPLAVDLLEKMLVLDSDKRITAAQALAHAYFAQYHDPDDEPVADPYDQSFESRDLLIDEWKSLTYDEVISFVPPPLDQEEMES", "experiment": "p38 kinase assay, p38-α with peptide substrate (Caliper LabChip)", "assay_type": "biochemical", "conditions": "read-out: IC50 p38a*peptide", "protocol": "Alternatively, p38 kinase assays were performed in a reaction volume of 70 µL in a 384-well plate, at 30° for […] under the following conditions: 50 mM Hepes, pH 7.4, 10 mM MgCl2, 1 mg/ml FA Free BSA, 1 mM DTT, 10 μM ATP, 10 μM p38 peptide [Caliper Life Sciences FL-Peptide 8 (5-FAM-IPTSPITTTYFFEKKK-COOH)] and 5.7 nM p38-α (Millipore), or 14.3 nM unactivated MAPKAP kinase-2, 0.18 nM p38-α (Millipore) and 2 uM RSK peptide [Caliper Life Sciences FL-Peptide 11 (5-FAM-KKLNRTLSVA-COOH)]. Serial dilutions of compounds were added to each reaction in 700 nL DMSO. 700 nL of DMSO was added to the control wells of the reaction plate as the no inhibitor control for each inhibitor titration. The reaction was terminated by the addition of 15 μL of a 100 mM EDTA. Product formation was analyzed using the Caliper LabChip 3000. The Separation buffer contained 100 mM HEPES pH 7.5, 0.015% Brij-35, 2.5% Coating Reagent #3 (Caliper Life Sciences) and 10 mM EDTA. Calculation of the substrate product ratios are performed using the HTS Well Analyzer software provided by Caliper Life Sciences and the percent inhibition at each compound concentration is determined."}, "[2]": {"tested_on": "hWB", "experiment": "IC50 hWB (TNF-α release assay)", "assay_type": "cell-based", "conditions": "Homo sapiens"}},
  "data": [
    {"smiles": "CCCCc1nnc(CNC(=O)c2cc(C(=O)c3c(F)cc(F)cc3F)c[nH]2)s1", "note": "[Example 2, N-[(5-butyl-1,3,4-thiadiazol-2-yl)-methyl]-4-(2,4,6-trifluorobenzoyl)-1-H-pyrrole-2-carboxamide]", "values": [
      {"measurement": "IC50", "setting": "[1]", "value": 441, "unit": "nM"},
      {"measurement": "IC50", "setting": "[2]", "value": 4220, "unit": "nM"}
    ]},
    {"smiles": "O=C(NCc1nnc(-c2cnccn2)s1)c1cc(C(=O)c2c(F)cc(F)cc2F)c[nH]1", "note": "[Example 21, N-[(5-pyrazin-2-yl-1,3,4-thiadiazol-2-yl)methyl]-4-(2,4,6-trifluorobenzoyl)-1H-pyrrole-2-carboxamide]", "values": [
      {"measurement": "IC50", "setting": "[1]", "value": 78, "unit": "nM"},
      {"measurement": "IC50", "setting": "[2]", "value": 815, "unit": "nM"}
    ]},
    {"smiles": "Cc1cc(-c2nnc(CNC(=O)c3cc(C(=O)c4c(F)cc(F)cc4F)c[nH]3)s2)[nH]n1", "note": "[Example 20, N-{[5-(3-methyl-1H-pyrazol-5-yl)-1,3,4-thiadiazol-2-yl]methyl}-4-(2,4,6-trifluorobenzoyl)-1H-pyrrole-2-carboxamide]", "values": [
      {"measurement": "IC50", "setting": "[1]", "value": 22, "unit": "nM"},
      {"measurement": "IC50", "setting": "[2]", "value": 262, "unit": "nM"}
    ]},
    {"smiles": "O=C(NCc1nnc(-c2ccn[nH]2)s1)c1cc(C(=O)c2c(F)cc(F)cc2F)c[nH]1", "note": "[Example 32, N-{[5-(1H-pyrazol-5-yl)-1,3,4-thiadiazol-2-yl]methyl}-4-(2,4,6-trifluorobenzoyl)-1H-pyrrole-2-carboxamide]", "values": [
      {"measurement": "IC50", "setting": "[1]", "value": 43, "unit": "nM"},
      {"measurement": "IC50", "setting": "[2]", "value": 84, "unit": "nM"}
    ]},
    {"smiles": "O=C(NCc1nnc(-c2n[nH]c3ccccc23)s1)c1cc(C(=O)c2c(F)cc(F)cc2F)c[nH]1", "note": "[Example 28, N-{[5-(1H-indazol-3-yl)-1,3,4-thiadiazol-2-yl]methyl}-4-(2,4,6-trifluorobenzoyl)-1H-pyrrole-2-carboxamide]", "values": [
      {"measurement": "IC50", "setting": "[1]", "value": 69, "unit": "nM"},
      {"measurement": "IC50", "setting": "[2]", "value": 360, "unit": "nM"}
    ]},
    {"smiles": "O=C(NCc1nnc(-c2ccc[nH]c2=O)s1)c1cc(Cc2c(F)cc(F)cc2F)c[nH]1", "note": "[Example 43, N-{[5-(2-oxo-1,2-dihydropyridin-3-yl)-1,3,4-thiadiazol-2-yl]methyl}-4-(2,4,6-trifluorobenzyl)-1H-pyrrole-2-carboxamide]", "values": [
      {"measurement": "IC50", "setting": "[1]", "value": 259, "unit": "nM"},
      {"measurement": "IC50", "setting": "[2]", "value": 1880, "unit": "nM"}
    ]},
    {"smiles": "O=C(NCc1nnc(-c2ccc[nH]c2=O)s1)c1cc(C(=O)c2c(F)cc(F)cc2F)c[nH]1", "note": "[Example 35, N-{[5-(2-oxo-1,2-dihydropyridin-3-yl)-1,3,4-thiadiazol-2-yl]methyl}-4-(2,4,6-trifluorobenzoyl)-1H-pyrrole-2-carboxamide]", "values": [
      {"measurement": "IC50", "setting": "[1]", "value": 37.5, "unit": "nM"},
      {"measurement": "IC50", "setting": "[2]", "value": 168, "unit": "nM"}
    ]},
    {"smiles": "O=C(NCc1nnc(-c2ccn[nH]2)s1)c1cc(Cc2c(F)cc(F)cc2F)c[nH]1", "note": "[Example 45, N-{[5-(1H-pyrazol-5-yl)-1,3,4-thiadiazol-2-yl]methyl}-4-(2,4,6-trifluorobenzyl)-1H-pyrrole-2-carboxamide]", "values": [
      {"measurement": "IC50", "setting": "[1]", "value": 354, "unit": "nM"},
      {"measurement": "IC50", "setting": "[2]", "value": 1360, "unit": "nM"}
    ]},
    {"smiles": "O=C(NCc1nnc(-c2ccccc2)s1)c1cc(C(=O)c2c(F)cc(F)cc2F)c[nH]1", "note": "[Example 7, N-[(5-phenyl-1,3,4-thiadiazol-2-yl)methyl]-4-(2,4,6-trifluorobenzoyl)-1H-pyrrole-2-carboxamide]", "values": [
      {"measurement": "IC50", "setting": "[1]", "value": 42, "unit": "nM"},
      {"measurement": "IC50", "setting": "[2]", "value": 4350, "unit": "nM"}
    ]},
    {"smiles": "O=C(NCc1nnc(-c2cccnc2)s1)c1cc(C(=O)c2c(F)cc(F)cc2F)c[nH]1", "note": "[Example 13, N-[(5-pyridin-3-yl-1,3,4-thiadiazol-2-yl)methyl]-4-(2,4,6-trifluorobenzoyl)-1H-pyrrole-2-carboxamide]", "values": [
      {"measurement": "IC50", "setting": "[1]", "value": 40, "unit": "nM"},
      {"measurement": "IC50", "setting": "[2]", "value": 747, "unit": "nM"}
    ]},
    {"smiles": "O=C(NCc1nnc(C2CC2)s1)c1cc(C(=O)c2c(F)cc(F)cc2F)c[nH]1", "note": "[Example 4, N-[(5-cyclopropyl-1,3,4-thiadiazol-2-yl)methyl]-4-(2,4,6-trifluorobenzoyl)-1H-pyrrole-2-carboxamide]", "values": [
      {"measurement": "IC50", "setting": "[1]", "value": 73, "unit": "nM"},
      {"measurement": "IC50", "setting": "[2]", "value": 330, "unit": "nM"}
    ]},
    {"smiles": "O=C(NCc1nnc(-c2cc3ncccn3n2)s1)c1cc(C(=O)c2c(F)cc(F)cc2F)c[nH]1", "note": "[Example 29]", "values": [
      {"measurement": "IC50", "setting": "[1]", "value": 17, "unit": "nM"},
      {"measurement": "IC50", "setting": "[2]", "value": 885, "unit": "nM"}
    ]},
    {"smiles": "O=C(NCc1nnc(-c2ccc[nH]2)s1)c1cc(C(=O)c2c(F)cc(F)cc2F)c[nH]1", "note": "[Example 14, N-{[5-(1H-pyrrol-2-yl)-1,3,4-thiadiazol-2-yl]methyl}-4-(2,4,6-trifluorobenzoyl)-1H-pyrrole-2-carboxamide]", "values": [
      {"measurement": "IC50", "setting": "[1]", "value": 121, "unit": "nM"},
      {"measurement": "IC50", "setting": "[2]", "value": 1270, "unit": "nM"}
    ]},
    {"smiles": "Cc1nnc(CNC(=O)c2cc(C(=O)c3c(F)cc(F)cc3F)c[nH]2)s1", "note": "[Example 1, N-[(5-methyl-1,3,4-thiadiazol-2-yl)methyl]-4-(2,4,6-trifluorobenzoyl)-1-H-pyrrole-2-carboxamide]", "values": [
      {"measurement": "IC50", "setting": "[1]", "value": 167, "unit": "nM"},
      {"measurement": "IC50", "setting": "[2]", "value": 467, "unit": "nM"}
    ]}
  ]
}
